# From patent US20240108740A1, “THERAPEUTIC COMPOSITIONS INCLUDING SPN10 AND USES THEREOF” (Stealth BioTherapeutics Inc., priority 2022, published 2024)
# Residues, ends and D or L forms follow the SMILES beside them.
# Legend:
# Sprague Dawley rats = assay: Example 54: metabolic syndrome (HFD/STZ); format: in vivo, rat; conditions: 10 weeks of administration
# Method: Sprague Dawley rats will be fed with a high-fat diet (HFD) for 6 weeks and then administered a single dose of STZ (30 mg/kg). The rats will be maintained on HFD until 14 weeks after STZ administration. Control subjects fed normal rat chow (NRC) for 6 weeks will be administered citrate buffer without STZ. After 5 months, diabetic subjects will be treated with peptide conjugates (10 mg/kg, 3 mg/kg, or 1 mg/kg s.c.q.d. (subcutaneously, once daily)), aromatic-cationic peptides (an equivalent molar dose of aromatic-cationic peptide based on the concentration of the aromatic-cationic peptide administered in the peptide conjugate group), SPN10(s) (an equivalent molar dose of SPN10 based on the concentration of SPN10 administered in the peptide conjugate group), SPN10(s) in combination with aromatic-cationic peptides (e.g., an equivalent molar dose of SPN10 based on the concentration of SPN10 administered in the peptide conjugate treatment group and an equivalent molar dose of aromatic-cationic peptide based on the concentration of aromatic-cationic peptide administered in the peptide conjugate treatment group) or control vehicle (saline) 5 days per week for 10 weeks. The study groups will be as follows: • Group A: HFD/STZ+peptide conjugates 10 mg/kg s.c.q.d. (Mon-Fri.), n=12; • Group B: HFD/STZ+peptide conjugates 3 mg/kg s.c.q.d. […]
# [1] = system: Human low density lipoprotein (LDL); assay: Example 18: LDL oxidation (conjugated dienes at 234 nm); format: biochemical; conditions: 10 mM, 5 hours at 37° C.
# Method: Human low density lipoprotein (LDL) will be prepared fresh from stored plasma. LDL oxidation will be induced catalytically by the addition of 10 mM […], and the formation of conjugated dienes will be monitored at 234 nm for 5 hours at 37° C. (B. Moosmann and C. Behl, Mol. Pharmacol. 61:260-268 (2002).
smiles,measurement,setting,value
"N=C(N)NCCC[C@H](NC(=O)[C@@H](N)Cc1c[nH]c2ccccc12)C(=O)N[C@@H](Cc1c[nH]c2ccccc12)C(=O)N[C@@H](CCCCN)C(N)=O [SPN10, H-L-Trp-L-Arg-L-Trp-L-Lys-NH2] (H-WRWK-NH2)",blood triglyceride level of HFD/STZ rats,Sprague Dawley rats,reduced to normal levels
same,rate of LDL oxidation,[1],dose-dependently inhibit the rate of LDL oxidation
